{"source": "patent US20250205268A1", "about": "“TREATMENT OF VIRUSES WITH ANTIVIRAL NUCLEOSIDES” (priority 2021, published 2025)", "origin": "cited, not measured here", "tested_on": "pestivirus and hepacivirus", "details": "[…] CHEMOTHER, 2003, 47 (1): 244-54; cited from earlier work"}
{"molecule": "O=c1nc(NO)ccn1[C@@H]1O[C@H](CO)[C@@H](O)[C@H]1O", "note": "[β-D-N(4)-hydroxycytidine, 1-((2R,3R,4S,5R)-3,4-dihydroxy-5-(hydroxymethyl)tetrahydrofuran-2-yl)-4-(hydroxyamino)pyrimidin-2 (1H)-one]", "values": [{"measurement": "antiviral activities", "result": "antipestivirus and antihepacivirus activities"}]}
